Assay results: patent US20240228572A1 (i2o Therapeutics, Inc., priority 2020, published 2024)
*1 amine or outer side, *2 acyl side, *3 side chain or, on linkers, in order; H or OH if unused. Where a SMILES comes first, the peptide text is derived from it. Side-chain parts run from the residue outwards. [ ]: non-standard residue; d: D form. The star is where a group is joined. C20 diacid = O=C(O)CCCCCCCCCCCCCCCCCCC(=O)*; γGlu = O=C(O)[C@H](CCC(=O)[*:2])N[*:1]; AEEA = NCCOCCOCC(=O)O; Aib = CC(C)(N)C(=O)O

How the values were obtained:
serum albumin [1] = biological target: serum albumin (Rattus norvegicus, UniProt P02770); assay: Fraction unbound (fu) in plasma by surface plasmon resonance, rat; format: in vitro ADME; conditions: SPR binding to serum albumin
Procedure: (§1) Conventional methods of measuring plasma protein binding, such as equilibrium dialysis, ultrafiltration and ultracentrifugation, are not reliable with peptides because of their tendency to adsorb to the surface of plastic tubing, dialysis membranes and molecular weight cut-off filters. As a result, the extent to which acylated peptides bind to serum albumin was evaluated using surface plasmon resonance (SPR).

[2] = Stability in subcutaneous (SC) tissue homogenates, monkey; format: in vitro ADME; conditions: subcutaneous (SC) tissue homogenate, pH 7.4, read-out: (H)SC tissue stability t½ (converted)
Procedure: In vitro incubations in subcutaneous (SC) tissue homogenates were used to characterize the ability of peptides to resist pre-systemic degradation by proteases and peptidases after SC administration. In vivo nonclinical studies have shown that peptidase activity in the SC space can limit the bioavailability of a peptide after SC administration. Peptides with high SC bioavailability are stable in this assay, while peptides with low SC bioavailability are unstable in this assay.
Human SC tissue was homogenized in cold 25 mM HEPES buffer (pH 7.4, 10-fold volume based on sample weight), and then filtered through a double layer of cheesecloth. The filtrates were aliquoted, flash frozen on a methanol/dry ice bath and stored at −80° C. The protein concentration of each pooled batch was determined using the BCA protein assay. Thawed stocks of human SC tissue homogenates were diluted to 1.0 mg protein/mL in 25 mM HEPES buffer (pH 7.4) and aliquoted into a 96-well plate. The diluted SC homogenates were pre-warmed for 10 minutes at 37° C. Reactions were initiated by the addition of test peptide (10 mcM final concentration) also dissolved in 25 mM HEPES buffer (pH 7.4). Reactions were maintained at 37° C. in a shaking water bath. […] Samples were analyzed by UPLC-MS/MS.

[3] = Intravenous infusion pharmacokinetics in rats; format: in vivo; conditions: rat, plasma, IV infusion 0.033 mg/kg, male Sprague-Dawley rats
Procedure: Peptides were dissolved in 0.05% Tween-20 in phosphate buffered saline and administered as a 1-hour intravenous infusion to non-fasted male Sprague-Dawley rats (n=3 per group) via femoral vein cannula at a final dose of 0.033 mg/kg. Formulations were administered at a rate of 1.67 mL/kg/h. Blood samples (approximately 250 μL) were collected for pharmacokinetic analysis via a jugular vein cannula at 0.25, 0.5, 0.75, 1, 1.17, 1.33, 1.5, 2, 4, 8, 24, 48, 72, and 96 hours post-start of infusion into microtainer tubes containing K2EDTA as anticoagulant and 25 μL of a protease inhibitor cocktail. Plasma was prepared by centrifugation and stored at −80° C. until analysis.
A 70 μL aliquot of each plasma sample was placed into to a 96-well plate. To each well was added 210 μL of 0.1% TFA in 2:1 ethanol:acetonitrile containing an appropriate internal standard. Plates were vortex mixed for 10 min at 1300 rpm, and then centrifuged for 10 min at 500× g. Supernatants (210 μL) were placed into a clean 96-well plate and evaporated under a nitrogen stream at 45° C. Residues were reconstituted in 80 μL of 20% acetonitrile (aq) containing 0.1% formic acid.
All calibration standards were prepared in control rat plasma containing K2EDTA and protease inhibitor cocktail.
Samples and standards were analyzed by electrospray ionization (ESI) UPLC-MS/MS using a system consisting of a CTC HTS PAL auto-injector (Leap, Carrboro, NC), an Agilent Infinity 1290 system with column oven (Palo Alto, CA), a Valco switching valve (Houston, TX), and a Sciex TripleTOF® 5600 mass spectrometer (Framingham, MA). Samples were injected onto a 2.1×50 mm reverse phase C18 analytical column, typically a Waters CORTECS UPLC C18+, 1.6 μm (Waters Corporation, Milford, MA) or similar. […] Initial conditions consisted of 95% A and 5% B. The organic component was increased to 95% B over a period of 3-4 minutes, depending on the peptide. Typical flow rates were 550 μL/min. The column temperature was held constant at 45° C. Peptides were quantified by monitoring one or more product ions produced from a multiply charged parent ion.

serum albumin [4] = biological target: serum albumin (Homo sapiens, UniProt P02768); assay: Fraction unbound (fu) in plasma by surface plasmon resonance, human; format: in vitro ADME; conditions: SPR binding to serum albumin
Procedure: as §1

serum albumin (Homo sapiens, UniProt P02768), sequence (P02768 25-609): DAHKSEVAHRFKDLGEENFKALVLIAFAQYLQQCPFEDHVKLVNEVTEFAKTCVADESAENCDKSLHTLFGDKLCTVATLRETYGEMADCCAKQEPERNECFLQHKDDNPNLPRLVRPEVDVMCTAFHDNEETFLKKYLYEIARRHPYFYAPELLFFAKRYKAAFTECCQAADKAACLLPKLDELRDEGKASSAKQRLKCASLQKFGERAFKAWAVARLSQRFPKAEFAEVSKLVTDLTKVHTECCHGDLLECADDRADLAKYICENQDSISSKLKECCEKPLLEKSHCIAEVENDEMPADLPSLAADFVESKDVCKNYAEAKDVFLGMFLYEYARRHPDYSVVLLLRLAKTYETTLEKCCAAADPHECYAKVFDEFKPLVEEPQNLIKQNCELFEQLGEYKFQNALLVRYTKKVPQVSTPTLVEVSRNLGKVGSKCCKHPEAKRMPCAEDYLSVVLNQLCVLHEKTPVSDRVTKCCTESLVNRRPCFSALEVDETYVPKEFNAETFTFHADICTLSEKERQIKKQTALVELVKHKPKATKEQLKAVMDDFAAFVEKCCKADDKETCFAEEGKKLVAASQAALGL
serum albumin (Rattus norvegicus, UniProt P02770), sequence (P02770 25-608): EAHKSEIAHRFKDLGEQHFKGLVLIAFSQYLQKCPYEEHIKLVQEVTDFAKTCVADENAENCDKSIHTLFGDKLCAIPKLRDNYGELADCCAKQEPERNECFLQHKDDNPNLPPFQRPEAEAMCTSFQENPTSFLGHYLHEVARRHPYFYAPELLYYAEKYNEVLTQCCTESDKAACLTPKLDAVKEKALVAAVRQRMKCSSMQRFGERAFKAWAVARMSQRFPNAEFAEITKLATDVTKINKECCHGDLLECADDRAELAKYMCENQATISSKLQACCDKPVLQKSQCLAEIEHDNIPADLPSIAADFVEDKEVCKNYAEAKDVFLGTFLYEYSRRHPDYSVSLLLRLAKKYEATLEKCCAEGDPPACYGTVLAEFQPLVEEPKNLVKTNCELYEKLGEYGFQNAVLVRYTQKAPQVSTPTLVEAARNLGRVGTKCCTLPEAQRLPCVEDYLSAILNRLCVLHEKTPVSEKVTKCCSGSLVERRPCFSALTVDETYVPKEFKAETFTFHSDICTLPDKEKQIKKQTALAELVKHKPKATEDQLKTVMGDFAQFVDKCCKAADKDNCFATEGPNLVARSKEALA

For `CC(C)C[C@H](NC(=O)[C@H](Cc1ccc(O)cc1)NC(=O)[C@H](CCCCN)NC(=O)[C@H](CO)NC(=O)[C@H](Cc1ccc(O)cc1)NC(=O)[C@H](CC(=O)O)NC(=O)[C@H](CO)NC(=O)[C@@H](NC(=O)[C@H](Cc1ccccc1)NC(=O)[C@@H](NC(=O)CNC(=O)[C@H](Cc1c[nH]cn1)NC(=O)[C@H](CO)NC(=O)[C@@H](N)Cc1ccc(O)cc1)[C@@H](C)O)[C@@H](C)O)C(=O)N[C@@H](CC(=O)O)C(=O)NC(C)(C)C(=O)N[C@@H](CCCCN)C(=O)N[C@@H](Cc1ccc(O)cc1)C(=O)N[C@@H](C)C(=O)N[C@@H](CCC(N)=O)C(=O)N[C@@H](CCCCNC(=O)CC[C@H](NC(=O)CC[C@H](NC(=O)COCCOCCNC(=O)CCCCCCCCCCCCCCCCCCC(=O)O)C(=O)O)C(=O)O)C(=O)N[C@@H](Cc1ccccc1)C(=O)N[C@H](C(=O)NC(C)(C)C(=O)N[C@@H](Cc1c[nH]c2ccccc12)C(=O)N[C@@H](CC(C)C)C(=O)N[C@@H](CCC(=O)O)C(=O)N[C@@H](CC(=O)O)C(=O)N[C@@H](CCC(=O)O)C(=O)N1CCC[C@H]1C(=O)N[C@@H](CO)C(=O)N[C@@H](CO)C(=O)NCC(=O)N[C@@H](C)C(=O)N1CCC[C@H]1C(=O)N1CCC[C@H]1C(=O)N1CCC[C@H]1C(=O)N[C@@H](CO)C(=O)O)C(C)C` [Compound A6] (H-YSHGTFTSDYSKYLD[Aib]KYAQK([γGlu-γGlu-AEEA-C20 diacid])FV[Aib]WLEDEPSSGAPPPS-OH; N-terminus assumed), the fraction unbound (serum albumin [1]) was 0.0083, the half-life at 10 mcM [2] was 5 h and the clearance ([3]; 1-hour) was 4.97 mL/h/kg. It also gave a half-life [3] of 13 h, a Vd ([3]; read-out: Vss) of 0.0867 L/kg and a fraction unbound (serum albumin [4]) of 0.0072.
